In US20170022171A1, “2,5-DISUBSTITUTED CYCLOPENTANECARBOXYLIC ACIDS AND THEIR USE” (Bayer Pharma Aktiengesellschaft, priority 2014, published 2017):
Blank lines part the entries; values can stand above or below the compound they belong to.

Experiments:
Format in all cases: biochemical
[1] = target: T1, mouse MMP-2 (Mus musculus, UniProt P33434); test: In vitro mouse MMP-2 inhibition test
T1 construct: purchased R&D Systems 924-MP
Text: (§1) The MMP-mediated amidolytic cleavage of a suitable peptide substrate leads to an increase in fluorescent light here too. The signal intensity of the fluorescent light is directly proportional to the enzyme activity. The active concentration of a test compound at which half the enzyme is inhibited (50% signal intensity of the fluorescent light) is reported as the IC50 value.
(§2) Recombinant mouse MMP-2 (from R&D Systems, 924-MP) is chemically activated in accordance with the manufacturer's instructions using APMA. 1 μl of the test compound to be analysed (as a solution in DMSO, suitable concentrations, for example, 1 nM to 30 μM) is pipetted into 24 μl of activated enzyme (final concentration, for example, 0.1 nM) in reaction buffer (50 mM Tris/HCl pH 7.5, 10 mM CaCl2, 150 mM NaCl, 0.05% Brij®-35) in a white 384-hole microtiter plate (MTP). The enzymatic reaction is started by adding the intramolecularly quenched Mca-Pro-Leu-Gly-Leu-Dpa(Dnp)-Ala-Arg-NH2 substrate (final concentration, for example, 10 μM; R&D Systems, ES-001), so as to result in a total test volume of 50 The course of the MMP-2 reaction is measured by measuring the fluorescence intensity (excitation 320 nm, emission 410 nm) over a suitable period of time (for example over 120 min at a temperature of 32° C.).

[2] = target: T2, mouse MMP-3 (Mus musculus, UniProt P28862); test: In vitro mouse MMP-3 inhibition test
T2 construct: purchased R&D Systems 548-MP
Text: as §1
(§3) Recombinant mouse MMP-3 (from R&D Systems, 548-MP) is chemically activated in accordance with the manufacturer's instructions using APMA. 1 μl of the test compound to be analysed (as a solution in DMSO, suitable concentrations, for example, 1 nM to 30 μM) is pipetted into 24 μl of activated enzyme (final concentration, for example, 0.5 nM) in reaction buffer (50 mM Tris/HCl pH 7.5, 10 mM CaCl2, 150 mM NaCl, 0.05% Brij®-35) in a white 384-hole microtiter plate (MTP). The enzymatic reaction is started by adding the intramolecularly quenched Mca-Arg-Pro-Lys-Pro-Val-Glu-Nval-Trp-Arg-Lys(Dnp)-NH2 substrate (final concentration, for example, 5 μM; R&D Systems, ES-002), so as to result in a total test volume of 50 μl. The course of the MMP-3 reaction is measured by measuring the fluorescence intensity (excitation 320 nm, emission 410 nm) over a suitable period of time (for example over 120 min at a temperature of 32° C.).

[3] = target: T3, mouse MMP-7 (Mus musculus, UniProt Q10738); test: In vitro mouse MMP-7 inhibition test
T3 construct: purchased R&D Systems 2967-MP
T3 sequence (Q10738 95-264): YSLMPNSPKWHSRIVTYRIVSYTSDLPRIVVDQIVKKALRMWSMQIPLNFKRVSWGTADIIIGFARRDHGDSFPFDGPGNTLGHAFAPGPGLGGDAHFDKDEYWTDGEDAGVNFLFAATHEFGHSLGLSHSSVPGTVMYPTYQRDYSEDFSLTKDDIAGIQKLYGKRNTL
Text: as §1
as §3, with “MMP-7” for “MMP-3”, “2967-MP)” for “548-MP)”, “Mca-Lys-Pro-Leu-Gly-Leu-Dpa(Dnp)-Ala-Arg-NH2” for “Mca-Arg-Pro-Lys-Pro-Val-Glu-Nval-Trp-Arg-Lys(Dnp)-NH2”, “ES-010),” for “ES-002),”

[4] = target: T4, mouse MMP-8 (Mus musculus, UniProt O70138); test: In vitro mouse MMP-8 inhibition test
T4 construct: purchased R&D Systems 2904-MP
Text: as §1
as §3, with “MMP-8” for “MMP-3”, “2904-MP)” for “548-MP)”, “2” for “0.5”, “Mca-Lys-Pro-Leu-Gly-Leu-Dpa(Dnp)-Ala-Arg-NH2” for “Mca-Arg-Pro-Lys-Pro-Val-Glu-Nval-Trp-Arg-Lys(Dnp)-NH2”, “ES-010),” for “ES-002),”

[5] = target: T5, mouse MMP-9 (Mus musculus, UniProt P41245); test: In vitro mouse MMP-9 inhibition test
T5 construct: purchased R&D Systems 909-MP
Text: as §1
as §2, with “mouse MMP-9” for “mouse MMP-2”, “Systems, 909-MP)” for “Systems, 924-MP)”, “example, 5” for “example, 10”, “the MMP-9” for “the MMP-2”

T4 sequence (O70138 101-465): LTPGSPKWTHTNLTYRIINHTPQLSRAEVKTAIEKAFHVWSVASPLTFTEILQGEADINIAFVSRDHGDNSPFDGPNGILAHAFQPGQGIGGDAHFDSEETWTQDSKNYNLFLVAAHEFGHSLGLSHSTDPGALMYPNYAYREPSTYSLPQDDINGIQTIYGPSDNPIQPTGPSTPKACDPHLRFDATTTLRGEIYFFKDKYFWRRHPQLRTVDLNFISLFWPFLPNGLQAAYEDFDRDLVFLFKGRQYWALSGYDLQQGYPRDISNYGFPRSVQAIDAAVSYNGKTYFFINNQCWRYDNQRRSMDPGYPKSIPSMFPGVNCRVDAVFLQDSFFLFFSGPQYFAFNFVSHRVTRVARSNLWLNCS
T2 sequence (P28862 100-477): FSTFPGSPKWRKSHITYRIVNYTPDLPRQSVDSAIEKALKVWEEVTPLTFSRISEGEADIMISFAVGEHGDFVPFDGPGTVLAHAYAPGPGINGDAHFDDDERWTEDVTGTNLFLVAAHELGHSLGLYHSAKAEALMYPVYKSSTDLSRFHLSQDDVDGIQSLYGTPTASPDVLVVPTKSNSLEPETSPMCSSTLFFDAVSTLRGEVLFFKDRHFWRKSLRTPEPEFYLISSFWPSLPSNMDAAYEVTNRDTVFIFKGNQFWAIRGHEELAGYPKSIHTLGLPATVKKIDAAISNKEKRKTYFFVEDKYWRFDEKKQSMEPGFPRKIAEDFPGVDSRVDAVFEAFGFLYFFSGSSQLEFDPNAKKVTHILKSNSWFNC
T5 sequence (P41245 108-730): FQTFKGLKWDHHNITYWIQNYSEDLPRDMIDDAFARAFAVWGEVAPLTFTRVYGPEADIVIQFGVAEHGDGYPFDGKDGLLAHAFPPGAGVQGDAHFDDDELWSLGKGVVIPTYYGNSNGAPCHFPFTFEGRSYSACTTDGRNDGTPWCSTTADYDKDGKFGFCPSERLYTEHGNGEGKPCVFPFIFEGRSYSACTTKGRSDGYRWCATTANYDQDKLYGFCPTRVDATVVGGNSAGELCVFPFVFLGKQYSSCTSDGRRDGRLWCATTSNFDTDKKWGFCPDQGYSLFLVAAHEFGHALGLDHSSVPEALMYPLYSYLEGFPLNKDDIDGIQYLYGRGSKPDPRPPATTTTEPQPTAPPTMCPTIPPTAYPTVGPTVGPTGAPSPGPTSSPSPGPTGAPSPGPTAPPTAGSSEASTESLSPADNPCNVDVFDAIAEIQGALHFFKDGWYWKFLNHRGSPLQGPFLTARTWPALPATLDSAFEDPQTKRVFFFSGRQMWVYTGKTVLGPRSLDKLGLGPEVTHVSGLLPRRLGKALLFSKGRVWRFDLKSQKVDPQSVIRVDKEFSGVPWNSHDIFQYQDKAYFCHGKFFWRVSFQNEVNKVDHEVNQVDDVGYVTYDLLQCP
T1 sequence (P33434 110-662): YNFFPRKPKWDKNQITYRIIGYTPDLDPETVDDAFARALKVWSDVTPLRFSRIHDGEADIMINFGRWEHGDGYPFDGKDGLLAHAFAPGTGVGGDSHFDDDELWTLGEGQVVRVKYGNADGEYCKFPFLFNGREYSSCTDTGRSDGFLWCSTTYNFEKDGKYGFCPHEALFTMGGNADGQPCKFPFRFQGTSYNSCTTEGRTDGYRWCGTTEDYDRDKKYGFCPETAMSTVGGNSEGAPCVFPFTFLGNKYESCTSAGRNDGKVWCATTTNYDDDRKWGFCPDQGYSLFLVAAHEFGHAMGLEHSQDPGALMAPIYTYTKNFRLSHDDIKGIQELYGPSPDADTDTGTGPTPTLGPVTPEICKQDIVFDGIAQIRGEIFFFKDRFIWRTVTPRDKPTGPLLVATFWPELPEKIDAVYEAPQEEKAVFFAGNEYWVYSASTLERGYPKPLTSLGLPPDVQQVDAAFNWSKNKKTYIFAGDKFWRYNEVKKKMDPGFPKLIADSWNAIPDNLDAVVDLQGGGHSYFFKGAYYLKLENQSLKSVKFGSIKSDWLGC

Structure (SMILES): Cc1cccc(COc2ccc(C(=O)[C@H]3CC[C@@H](Cn4nnc5ccc(C)cc5c4=O)[C@@H]3C(=O)O)cc2)c1 (racemic) [Example 97, (+/−)-(1RS,2RS,5SR)-2-{4-[(3-Methylbenzyl)oxy]benzoyl}-5-[(6-methyl-4-oxo-1,2,3-benzotriazin-3(4H)-yl)methyl]cyclopentanecarboxylic acid]
IC50 [1]: 1900 nM
IC50 [2]: 4600 nM
IC50 [3]: 160 nM
IC50 [4]: 1300 nM
IC50 [5]: 1600 nM

Structure (SMILES): Cc1ccc2nnn(C[C@@H]3CC[C@H](C(=O)c4ccc(OCc5cccc(Cl)c5)cc4)[C@H]3C(=O)O)c(=O)c2c1 (racemic) [Example 103, (+/−)-(1RS,2RS,5SR)-2-{4-[(3-Chlorobenzyl)oxy]benzoyl}-5-[(6-methyl-4-oxo-1,2,3-benzotriazin-3(4H)-yl)methyl]cyclopentanecarboxylic acid]
IC50 [1]: 370 nM
IC50 [2]: 1100 nM
IC50 [3]: 28 nM
IC50 [4]: 270 nM
IC50 [5]: 550 nM

Structure (SMILES): Cc1ccc2nnn(C[C@@H]3CC[C@H](C(=O)c4ccc(OCc5cccc(OC(F)(F)F)c5)cc4)[C@H]3C(=O)O)c(=O)c2c1 (racemic) [Example 109, (+/−)-(1RS,2SR,5RS)-2-[(6-Methyl-4-oxo-1,2,3-benzotriazin-3(4H)-yl)methyl]-5-(4-{[3-(trifluoromethoxy)benzyl]oxy}benzoyl)cyclopentanecarboxylic acid]
IC50 [1]: 1300 nM
IC50 [2]: 1100 nM
IC50 [3]: 250 nM
IC50 [4]: 450 nM
IC50 [5]: 910 nM

Structure (SMILES): CCCCCOc1ccc(C(=O)[C@H]2CC[C@@H](Cn3nnc4ccc(C)cc4c3=O)[C@@H]2C(=O)O)cc1 (racemic) [Example 123, (+/−)-(1RS,2SR,5RS)-2-[(6-Methyl-4-oxo-1,2,3-benzotriazin-3(4H)-yl)methyl]-5-[4-(pentyloxy)benzoyl]cyclopentanecarboxylic acid]
IC50 [1]: 370 nM
IC50 [2]: 1800 nM
IC50 [3]: 100 nM
IC50 [4]: 91 nM
IC50 [5]: 770 nM

Structure (SMILES): O=C(O)[C@@H]1[C@@H](Cn2nnc3ccc(C(F)(F)F)cc3c2=O)CC[C@H]1C(=O)c1ccc(OCC2CCCCC2)cc1 (single isomer, unassigned) [Example 41, (+)-(1RS,2RS,5SR)-2-[4-(Cyclohexylmethoxy)benzoyl]-5-{[4-oxo-6-(trifluoromethyl)-1,2,3-benzotriazin-3(4H)-yl]methyl}cyclopentanecarboxylic acid]
IC50 [1]: 180 nM
IC50 [2]: 790 nM
IC50 [3]: 27 nM
IC50 [4]: 16 nM
IC50 [5]: 220 nM

Structure (SMILES): O=C(O)[C@@H]1[C@@H](Cn2nnc3ccc(C(F)(F)F)cc3c2=O)CC[C@H]1C(=O)c1ccc(OCCC2CCCCC2)cc1 (single isomer, unassigned) [Example 52, (+)-(1RS,2RS,5SR)-2-[4-(2-Cyclohexylethoxy)benzoyl]-5-{[4-oxo-6-(trifluoromethyl)-1,2,3-benzotriazin-3(4H)-yl]methyl}cyclopentanecarboxylic acid]
IC50 [1]: 1800 nM
IC50 [2]: 6900 nM
IC50 [3]: 170 nM
IC50 [4]: 160 nM
IC50 [5]: 2800 nM

Continued by falling IC50 [1], values first:

IC50 [1]: 4200 nM
IC50 [2]: 5900 nM
IC50 [3]: 120 nM
IC50 [4]: 410 nM
IC50 [5]: 2700 nM
Structure (SMILES): O=C(O)[C@@H]1[C@@H](Cn2nnc3ccc(C(F)(F)F)cc3c2=O)CC[C@H]1C(=O)c1ccc(SCc2ccccc2)cc1 (single isomer, unassigned) [Example 75, (+)-(1RS,2RS,5SR)-2-[4-(Benzylsulphanyl)benzoyl]-5-{[4-oxo-6-(trifluoromethyl)-1,2,3-benzotriazin-3(4H)-yl]methyl}cyclopentanecarboxylic acid]

IC50 [1]: 2400 nM
IC50 [2]: 8000 nM
IC50 [3]: 69 nM
IC50 [4]: 300 nM
IC50 [5]: 1700 nM
Structure (SMILES): O=C(O)[C@@H]1[C@@H](Cn2nnc3ccc(C(F)(F)F)cc3c2=O)CC[C@H]1C(=O)c1ccc(OCc2cccc(Cl)c2)cc1 (single isomer, unassigned) [Example 23, (+)-(1RS,2RS,5SR)-2-{4-[(3-Chlorobenzyl)oxy]benzoyl}-5-{[4-oxo-6-(trifluoromethyl)-1,2,3-benzotriazin-3(4H)-yl]methyl}cyclopentanecarboxylic acid]

IC50 [1]: 1400 nM
IC50 [2]: 1400 nM
IC50 [3]: 54 nM
IC50 [4]: 130 nM
IC50 [5]: 23000 nM
Structure (SMILES): O=C(O)[C@@H]1[C@@H](Cn2nnc3ccc(C(F)(F)F)cc3c2=O)CC[C@H]1C(=O)c1ccc(SCc2cccc(Cl)c2)cc1 (single isomer, unassigned) [Example 77, (+)-(1RS,2RS,5SR)-2-{4-[(3-Chlorobenzyl)sulphanyl]benzoyl}-5-{[4-oxo-6-(trifluoromethyl)-1,2,3-benzotriazin-3(4H)-yl]methyl}cyclopentanecarboxylic acid]

IC50 [1]: 890 nM
IC50 [2]: 1800 nM
IC50 [3]: 150 nM
IC50 [4]: 250 nM
IC50 [5]: 1100 nM
Structure (SMILES): Cc1ccc2nnn(C[C@@H]3CC[C@H](C(=O)c4ccc(OCc5cccc(C(F)(F)F)c5)cc4)[C@H]3C(=O)O)c(=O)c2c1 (racemic) [Example 100, (+/−)-(1RS,2SR,5RS)-2-[(6-Methyl-4-oxo-1,2,3-benzotriazin-3(4H)-yl)methyl]-5-(4-{[3-(trifluoromethyl)benzyl]oxy}benzoyl)cyclopentanecarboxylic acid]
